Assay results as given in patent US20230131427A1, “FUNGICIDAL COMPOSITIONS” (SYNGENTA CROP PROTECTION AG, priority 2020, published 2023).
“And” between values parts separate entries of the source, which are not always exact repeats. Equal entries are not always repeated. Where two headings read alike, the source gives them in different places.

Assays:
[1] = system: Puccinia recondita f. sp. tritici; assay: Puccinia recondita f. sp. tritici / wheat / leaf disc preventative (brown rust); assay type: in vivo; conditions: foliar, vs untreated control
Protocol: (§1) Leaf disks or leaf segments of various plant species are cut from plants grown in a greenhouse. The cut leaf disks or segments are placed in multiwell plates (24-well format) onto water agar. The leaf disks are sprayed with a test solution before (preventative) or after (curative) inoculation. Compounds to be tested are prepared as DMSO solutions (max. 10 mg/mL) which are diluted to the appropriate concentration with 0.025% Tween20 just before spraying. The inoculated leaf disks or segments are incubated under defined conditions (temperature, relative humidity, light, etc.) according to the respective test system. A single evaluation of disease level is carried out 3 to 14 days after inoculation, depending on the pathosystem. Percent disease control relative to the untreated check leaf disks or segments is then calculated.
Wheat leaf segments cv. Kanzler are placed on agar in multiwell plates (24-well format) and sprayed with the formulated test compound diluted in water. The leaf disks are inoculated with a spore suspension of the fungus 1 day after application. The inoculated leaf segments are incubated at 19° C. and 75% rh under a light regime of 12 h light/12 h darkness in a climate cabinet and the activity of a compound is assessed as percent disease control compared to untreated when an appropriate level of disease damage appears in untreated check leaf segments (7-9 days after application).

[2] = system: Puccinia recondita f. sp. tritici; assay: Puccinia recondita f. sp. tritici / wheat / leaf disc curative (brown rust); assay type: in vivo; conditions: foliar, vs untreated control
Protocol: Leaf disks or leaf segments of various plant species are cut from plants grown in a greenhouse. The cut leaf disks or segments are placed in multiwell plates (24-well format) onto water agar. The leaf disks are sprayed with a test solution before (preventative) or after (curative) inoculation. […] The inoculated leaf disks or segments are incubated under defined conditions (temperature, relative humidity, light, etc.) according to the respective test system. […] Percent disease control relative to the untreated check leaf disks or segments is then calculated. Wheat leaf segments cv. Kanzler are placed on agar in multiwell plates (24-well format). The leaf segments are inoculated with a spore suspension of the fungus. […] The formulated test compound diluted in water is applied 1 day after inoculation.

[3] = system: Phakopsora pachyrhizi; assay: Phakopsora pachyrhizi / soybean / leaf disc preventative (Asian soybean rust); assay type: in vivo; conditions: foliar, 288 h, vs untreated control
Protocol: as §1
Soybean leaf disks are placed on agar in multiwell plates (24-well format) and sprayed with test solutions. After drying, the leaf disks are inoculated with a spore suspension of the fungus. After appropriate incubation the activity of a compound is assessed approx.12 dpi (days after inoculation) as preventive fungicidal activity.

[4] = system: Glomerella lagenarium (Colletotrichum lagenarium); assay: Glomerella lagenarium (Colletotrichum lagenarium) liquid culture / cucumber / preventative (anthracnose); assay type: cell-based; conditions: Colletotrichum orbiculare, vs untreated control
Protocol: Mycelia fragments or conidia suspensions of a fungus prepared either freshly from liquid cultures of the fungus or from cryogenic storage, are directly mixed into nutrient broth. DMSO solutions of the test compound (max. 10 mg/mL) are diluted with 0.025% Tween20 by a factor of 50 and 10 μl of this solution is pipetted into a microtiter plate (96-well format). The nutrient broth containing the fungal spores/mycelia fragments is then added to give an end concentration of the tested compound. The test plates are incubated in the dark at 24° C. and 96% relative humidity. The inhibition of fungal growth is determined photometrically after 2 to 7 days, depending on the pathosystem, and percent antifungal activity relative to the untreated check is calculated.
Conidia of the fungus from cryogenic storage are directly mixed into nutrient broth (PDB potato dextrose broth). After placing a (DMSO) solution of test compound into a microtiter plate (96-well format), the nutrient broth containing the fungal spores is added.

[5] = system: Glomerella lagenarium syn. Colletotrichum lagenarium; assay: Example B1: mixtures, preventative activity against Glomerella lagenarium syn. Colletotrichum lagenarium, liquid culture; assay type: cell-based; conditions: Colletotrichum orbiculare; component A alone, 0.03 ppm
In short: (§2)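 Fungal conidia mixed into potato dextrose broth were added to test compounds or mixtures in DMSO in microtiter wells. Fungicidal activity was scored on a 100-0 scale (100 = no disease growth; 0 = well fully covered by mycelium). Synergy was assessed by the Colby formula, comparing observed (O) with expected (E) action.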

[6] = system: Septoria glycines; assay: Example B2: mixtures, preventative activity against Septoria glycines (brown spot), liquid culture; assay type: cell-based; conditions: Septoria glycines, component A alone
In short: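 Conidia from fresh culture mixed into potato dextrose broth and added to test compounds in DMSO in 96-well plates. Growth inhibition scored 100-0 (100 = no growth; 0 = well covered by mycelium); synergy of mixtures judged by Colby expected-action (O-E).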

[7] = system: Septoria tritici; assay: Example B3: mixtures, preventative activity against Septoria tritici (leaf blotch), liquid culture; assay type: cell-based; conditions: component A alone; for inhibition at 0.00625 ppm / inhibition at 0.03 ppm / inhibition at 0.003125 ppm: Zymoseptoria tritici; for inhibition at 0.03 ppm: read-out: Activity (%) A
In short: as §2

[8] = system: Mycosphaerella arachidis syn. Cercospora arachidicola; assay: Example B4: mixtures, preventative activity against Mycosphaerella arachidis syn. Cercospora arachidicola (brown leaf spot of peanut), liquid culture; assay type: cell-based; conditions: Mycosphaerella arachidis, component A alone
Excerpt: This occurs whenever the action of an active ingredient combination is greater than the sum of the actions of the individual components. The action to be expected E for a given active ingredient combination obeys the so-called COLBY formula and can be calculated as follows (COLBY, S. R. “Calculating synergistic and antagonistic responses of herbicide combination”. Weeds, Vol. 15, pages 20-22; 1967):
If the action actually observed (O) is greater than the expected action (E), then the action of the combination is super-additive, i.e. there is a synergistic effect. In mathematical terms, synergism corresponds to a positive value for the difference of (O-E). In the case of purely complementary addition of activities (expected activity), said difference (O-E) is zero. A negative value of said difference (O-E) signals a loss of activity compared to the expected activity.
Conidia of the fungus from cryogenic storage were directly mixed into nutrient broth (PDB potato dextrose broth). A DMSO solution of the test compounds was placed into a microtiter plate (96-well format) and the nutrient broth containing the fungal spores was added to it.
Cercospora arachidicola (Brown leaf spot of peanut). Fungicidal activity was evaluated on a 100-0 scale (100=no disease growth; 0=well completely covered by mycelium).

[9] = system: Phakopsora pachyrhizi; assay: Example B5: preventative activity against Phakopsora pachyrhizi (soybean rust), whole soybean plants sprayed, leaf disks inoculated; assay type: in vivo
In short: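 Soybean plants sprayed 4 weeks after planting at rates in g a.i./ha; leaf disks from the first trifoliate cut 1 day later and inoculated with rust, five repetitions per rate. Scored 11–14 days post-inoculation relative to untreated infested check (100 = no disease, 0 = heavy infestation).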

[10] = Phakopsora pachyrhizi, foliar, applied alone, 9 g/ha, read-out: Observed Activity (% of untreated) against Phakopsora pachyrhizi

| melting point [°C] | Structure (SMILES) | pest or weed control at 200 ppm [1] [%] | pest or weed control at 200 ppm [2] [%] | pest or weed control at 67 ppm [3] [%] | inhibition of growth at 6.7 ppm [4] [%] | inhibition at 0.03 ppm [5] [%] | inhibition at 0.003125 ppm ([6]; 100-0 scale) [%] | inhibition at 0.00625 ppm ([6]; 100-0 scale) [%] | inhibition at 0.00625 ppm ([7]; 0.00625 ppm, 100-0 scale) [%] | inhibition at 0.003125 ppm [8] [%] | inhibition at 0.00625 ppm [8] [%] | inhibition at 9 g/ha [9, 10] [%] | Observed Activity (% of untreated) against Phakopsora pachyrhizi ([9]; applied alone, 2.25 g/ha) | Observed Activity (% of untreated) against Phakopsora pachyrhizi ([9]; applied alone, 4.5 g/ha) | other results |
| --- | --- | --- | --- | --- | --- | --- | --- | --- | --- | --- | --- | --- | --- | --- | --- |
| 88 to 91 | CO/C=C(\Oc1cc(-n2ccc(C(C)C)n2)ccc1C)C(=O)OC [X.06, methyl (Z)-2-[5-(3-isopropylpyrazol-1-yl)-2-methyl-phenoxy]-3-methoxy-prop-2-enoate] | ≥ 80 | ≥ 80 | ≥ 80 | ≥ 80 | 20 | 0 | 50 | 50 | 20 | 50 | 97 | 13% and 9% | 61% and 48% and 73% | inhibition at 0.025 ppm ([6]; 0.025 ppm, 100-0 scale): 90%; inhibition at 0.03 ppm ([7]; 100-0 scale): 70%; Activity (%) A ([7]; 0.003125 ppm, 100-0 scale): 0%; inhibition at 2.25 g/ha ([9]; Phakopsora pachyrhizi, foliar, applied alone, 2.25 g/ha, read-out: Observed Activity (% of untreated) against Phakopsora pachyrhizi): 10%; inhibition at 18 g/ha ([9]; Phakopsora pachyrhizi, foliar, applied alone, 18 g/ha, read-out: Observed Activity (% of untreated) against Phakopsora pachyrhizi): 97%; Observed Activity (%) (% of untreated) against Phakopsora pachyrhizi ([9]; applied alone, 2.25 g/ha): 71%; Observed Activity (%) (% of untreated) against Phakopsora pachyrhizi ([9]; applied alone, 4.5 g/ha): 94%; Observed Activity (% of untreated) against Phakopsora pachyrhizi ([9]; applied alone, 9 g/ha): 81% and 93% |
| 107 to 109 | CO/C=C(\Oc1cc(-n2ncc(C(F)(F)F)n2)ccc1C)C(=O)OC [X.10, methyl (Z)-3-methoxy-2-[2-methyl-5-[4-(trifluoromethyl)triazol-2-yl]phenoxy]prop-2-enoate] | ≥ 80 | ≥ 80 | ≥ 80 | ≥ 80 | 0 | 70 | 90 |  | 70 | 90 |  |  |  | inhibition at 0.03 ppm ([6]; 0.03 ppm, 100-0 scale, read-out: Activity (%) A): 0%; inhibition at 0.003125 ppm ([7]; 72 h, 0.003125 ppm): 70%; inhibition at 0.00625 ppm ([7]; 72 h, 0.00625 ppm): 90%; inhibition at 0.03 ppm ([7]; 72 h, 72 hrs): 0%; inhibition at 0.03 ppm ([8]; 0.03 ppm): 0% |
| 91 to 94 | CCCc1ccn(-c2ccc(C)c(O/C(=C\OC)C(=O)OC)c2)n1 [X.01, methyl (Z)-3-methoxy-2-[2-methyl-5-(3-propylpyrazol-1-yl)phenoxy]prop-2-enoate] | ≥ 80 | ≥ 80 | ≥ 80 | ≥ 80 | 70 |  |  | 50 | 0 | 20 | 85 | 24% and 31% | 69% and 64% | inhibition at 0.003125 ppm [6]: 20%; inhibition at 0.00625 ppm [6]: 70%; inhibition at 0.003125 ppm ([7]; 0.003125 ppm, 100-0 scale): 20%; Activity (%) A ([7]; 0.00625 ppm, 100-0 scale): 70%; inhibition at 9 g/ha ([9]; Phakopsora pachyrhizi, foliar, active ingredient alone, 9 g/ha, read-out: Observed Activity (%) (% of untreated)): 78%; inhibition at 18 g/ha ([9]; Phakopsora pachyrhizi, foliar, active ingredient alone, 18 g/ha, read-out: Observed Activity (%) (% of untreated)): 85%; Observed Activity (%) (% of untreated) ([9]; active ingredient alone, 4.5 g/ha): 61% and 87% and 82% and 69%; Observed Activity (%) (% of untreated) ([9]; active ingredient alone, 9 g/ha): 94% and 90%; Observed Activity (%) (% of untreated) ([9]; active ingredient alone, 18 g/ha): 97% |
